Test results: patent publication US11006626B2, “Compounds for protection of cells” (Sulfateq B.V., priority 2012, dated 2021)

Assays:
Format in all cases: cell-based
[1] = tested on: blood platelets; experiment: Cold storage of PRP blood platelets, aggregation of thrombocytes after storage; set-up: key: − means that most of the thrombocytes were aggregated; a + indicates that a few cells were still viable but some cells aggregated; a ++ indicates that almost all cells were viable; conditions: 30 mM; PRP platelets stored at 4° C.; 264 hours
Description: PRP platelets were harvested and 2.1 ml was suspended in Poly Propylene tubes of 5 ml, closed with a stop.
Several compounds according to the invention were added to the blood platelets directly after preparing the PRP plasma and incubated during 10 minutes at 37° C. or 30 minutes at room temperature. The blood platelets with the compound were then stored at 4° C.
A control was stored under shaking conditions at room temperature. Another control was stored at 4° C. without the addition of a compound.
(§1) A sample was taken out of each tube after 264 hours after addition of the compound and tested as follows: • The color and coagulation properties were visually analysed. • The thrombocyte cells that survived were counted and it was evaluated whether the thrombocytes were aggregated. • It was evaluated if the thrombocytes still were able to function after stimulation by the addition of ADP or under influence of collagen in a 96 well plate. • The adhesion was evaluated, meaning the ability of the platelets to bind collagen in a 6 well plate preincubated with collagen. • Via an ELISA assay, it was evaluated whether thromboxane was secreted from the platelets. Thromboxane facilitates aggregation and is produced by activated blood platelets.
Table 3 provides an overview of the results of the addition of the compounds to the blood platelets and evaluates the aggregation of the thrombocytes after addition of the compound according to the invention and cooling until 4° C.

[2] = tested on: PRP platelets; experiment: PRP platelets stored at 4° C. with Sul 136, number of cells that survived; conditions: for number of cells in % relative to the number of cells at time 0: 4° C.
Description: […] The blood platelets with the compound were then stored at 4° C.
as §1, with “and” for “A sample was taken out of each tube after 264 hours after addition of the compound and”
PRP platelets were tested with the addition of Sul 136. […] The number of cells are given in % relative to the number of cells at time 0. 66% of the platelets stored at room temperature survived after 216 hours. Only 42.3% of the cells stored at 4° C. survived after 216 hours.

[3] = tested on: apherese blood platelets; experiment: Apheresis platelets stored with Sul 136, hematology analysis (platelet count, MPV); conditions: stored at 4° C. with Sul 136
Text: Platelets were obtained via standard plateletpheresis procedures either on Haemonetics (donor 2611811 and donor 2611855) or on Cobe instruments (donor 2611770). According the protocol all units would be obtained with plateletpheresis procedure with the Cobe instrument, but from the three donations two were not passing the blood bank quality control criteria. Nevertheless, all platelet donations have a similar concentration and a similar platelet quality. In none of the platelet concentrates clots were found. The freshly harvested platelets are weighed on a balance and for sampling of platelet concentrate a small PVC bag was seal-docked to the main platelet concentrate bag. Standard homogenization of platelet concentrate has to be done with a roller before sampling. 300 μM suspension of Sul 136 is added with a procedure, which keeps the bag content sterile and the Sul 136 is kept in suspension by frequent whirling and stored at 37° C. before it is added to the freshly harvested platelets. The Sul 136 suspension is added to three platelet bags directly from the bag. After addition, the content of the platelet bag is gently mixed. After 2 hours the first sample is drawn with a seal-docked sample bag. The sample bag is disconnected by welding and from this sample bag the samples are taken for hematology analyzing, aggregometer tests and the flow-cytometry tests. Swirling in the bag is reported by experience of the laboratory worker in the standard format. Platelets without Sul 136 put on a flatbed shaker and stored at room temperature were used as control. Another control is stored at 4° C. Platelet samples in which Sul 136 is added, are stored without shaking in a refrigerator at 4° C.

## Cc1c(C)c2c(c(C)c1O)CCC(C)(C(=O)N1CCN(CC(=O)O)CC1)O2 (racemic) [SUL - 136, 2-(4-(6-hydroxy-2,5,7,8-tetramethylchroman-2-carbonyl)piperazin-1-yl)acetic acid]
[1]
  Aggregation of blood platelets after storage: +
[2]; 10 min 0.001 mM, 0 h
  number of cells in % relative to the number of cells at time 0: 100%
[2]; 10 min 0.001 mM, 72 h
  number of cells in % relative to the number of cells at time 0: 58.9%
[2]; 10 min 0.001 mM, 216 h
  number of cells in % relative to the number of cells at time 0: 55.1%
[2]; 10 min 0.01 mM, 0 h
  number of cells in % relative to the number of cells at time 0: 100%
[2]; 10 min 0.01 mM, 72 h
  number of cells in % relative to the number of cells at time 0: 66.0%
[2]; 10 min 0.01 mM, 216 h
  number of cells in % relative to the number of cells at time 0: 52.1%
[2]; 10 min 0.1 mM, 0 h
  number of cells in % relative to the number of cells at time 0: 100%
[2]; 10 min 0.1 mM, 72 h
  number of cells in % relative to the number of cells at time 0: 55.9%
[2]; 10 min 0.1 mM, 216 h
  number of cells in % relative to the number of cells at time 0: 50.8%
[2]; 10 min 1 mM, 0 h
  number of cells in % relative to the number of cells at time 0: 100%
[2]; 10 min 1 mM, 72 h
  number of cells in % relative to the number of cells at time 0: 59.1%
[2]; 10 min 1 mM, 216 h
  number of cells in % relative to the number of cells at time 0: 59.3%
[2]; 10 min 10 mM, 0 h
  number of cells in % relative to the number of cells at time 0: 100%
[2]; 10 min 10 mM, 72 h
  number of cells in % relative to the number of cells at time 0: 64.8%
[2]; 10 min 10 mM, 216 h
  number of cells in % relative to the number of cells at time 0: 47.9%
[2]; 60 min 0.001 mM, 0 h
  number of cells in % relative to the number of cells at time 0: 100%
[2]; 60 min 0.001 mM, 72 h
  number of cells in % relative to the number of cells at time 0: 83.8%
[2]; 60 min 0.001 mM, 216 h
  number of cells in % relative to the number of cells at time 0: 86.1%
[2]; 60 min 0.01 mM, 0 h
  number of cells in % relative to the number of cells at time 0: 100%
[2]; 60 min 0.01 mM, 72 h
  number of cells in % relative to the number of cells at time 0: 82.9%
[2]; 60 min 0.01 mM, 216 h
  number of cells in % relative to the number of cells at time 0: 94.8%
[2]; 60 min 0.1 mM, 0 h
  number of cells in % relative to the number of cells at time 0: 100%
[2]; 60 min 0.1 mM, 72 h
  number of cells in % relative to the number of cells at time 0: 76.3%
[2]; 60 min 0.1 mM, 216 h
  number of cells in % relative to the number of cells at time 0: 77.6%
[2]; 60 min 1 mM, 0 h
  number of cells in % relative to the number of cells at time 0: 100%
[2]; 60 min 1 mM, 72 h
  number of cells in % relative to the number of cells at time 0: 29.9%
[2]; 60 min 1 mM, 216 h
  number of cells in % relative to the number of cells at time 0: 62.9%
[2]; 60 min 10 mM, 0 h
  number of cells in % relative to the number of cells at time 0: 100%
[2]; 60 min 10 mM, 72 h
  number of cells in % relative to the number of cells at time 0: 51.8%
[2]; 60 min 10 mM, 216 h
  number of cells in % relative to the number of cells at time 0: 43.4%
[2]; storage of 72 and 216 hours at 4° C., vs. no compound
  platelets survived after storage: substantial more platelets survived
[3]; Donor 2, Day 1
  MPV: 10.1 fL
  Platelets/μl: 1,004,000 Platelets/μl
[3]; Donor 2, Day 2
  MPV: 7.6 fL
  Platelets/μl: 1,272,000 Platelets/μl
[3]; Donor 2, Day 3
  MPV: 7.8 fL
  Platelets/μl: 1,220,000 Platelets/μl
[3]; Donor 2, Day 5
  MPV: 8.0 fL
  Platelets/μl: 1,252,000 Platelets/μl
[3]; Donor 2, Day 8
  MPV: 8.0 fL
  Platelets/μl: 1,168,000 Platelets/μl
[3]; Donor 2, Day 10
  MPV: 8.1 fL
  Platelets/μl: 1,104,000 Platelets/μl
[3]; Donor 2, Day 12
  MPV: 8.6 fL
  Platelets/μl: 1,032,000 Platelets/μl
[3]; Donor 2, Day 19
  MPV: 8.8 fL
  Platelets/μl: 860,000 Platelets/μl
[3]; Donor 3, Day 1
  MPV: 10.3 fL
  Platelets/μl: 980,000 Platelets/μl
[3]; Donor 3, Day 2
  MPV: 7.7 fL
  Platelets/μl: 1,188,000 Platelets/μl
[3]; Donor 3, Day 3
  MPV: 7.7 fL
  Platelets/μl: 1,072,000 Platelets/μl
[3]; Donor 3, Day 5
  MPV: 8.0 fL
  Platelets/μl: 1,068,000 Platelets/μl
[3]; Donor 3, Day 8
  MPV: 8.3 fL
  Platelets/μl: 992,000 Platelets/μl
[3]; Donor 3, Day 10
  MPV: 8.3 fL
  Platelets/μl: 892,000 Platelets/μl
[3]; Donor 3, Day 12
  MPV: 9.0 fL
  Platelets/μl: 912,000 Platelets/μl
[3]; Donor 3, Day 19
  MPV: 9.5 fL
  Platelets/μl: 692,000 Platelets/μl
[3]; donor 1, Day 1
  MPV: 10.6 fL
  Platelets/μl: 1,000,000 Platelets/μl
[3]; donor 1, Day 2
  MPV: 9.5 fL
  Platelets/μl: 1,192,000 Platelets/μl
[3]; donor 1, Day 3
  MPV: 9.2 fL
  Platelets/μl: 1,240,000 Platelets/μl
[3]; donor 1, Day 5
  MPV: 9.1 fL
  Platelets/μl: 1,232,000 Platelets/μl
[3]; donor 1, Day 8
  MPV: 9.3 fL
  Platelets/μl: 1,352,000 Platelets/μl
[3]; donor 1, Day 10
  MPV: 9.6 fL
  Platelets/μl: 1,228,000 Platelets/μl
[3]; donor 1, Day 12
  MPV: 9.8 fL
  Platelets/μl: 1,204,000 Platelets/μl
[3]; donor 1, Day 19
  MPV: 8.8 fL
  Platelets/μl: 1,068,000 Platelets/μl
